Measurements published in ChEMBL document CHEMBL5506069, “A Unique Hybridization Route to Access Hydrazylnaphthalimidols as Novel Structural Scaffolds of Multitargeting Broad-Spectrum Antifungal Candidates” (J Med Chem, 2024).
≈ marks a conversion by molar mass, not a printed value. Calls of active or inactive are those of the source. The calls are words filed in the database; no cut-off is given here.

How the values were obtained:
Candida parapsilosis = assay: Antifungal activity against Candida parapsilosis ATCC 22019 assessed as inhibition of fungal growth incubated for 24 hrs by CLSI based microbroth dilution method; type: functional; details: Lodderomyces parapsilosis
Aspergillus fumigatus [1] = assay: Antifungal activity against Aspergillus fumigatus assessed as inhibition of fungal growth incubated for 24 hrs by CLSI based microbroth dilution method; type: functional
Candida albicans [2] = assay: Antifungal activity against Candida albicans assessed as inhibition of fungal growth incubated for 24 hrs by CLSI based microbroth dilution method; type: functional
Candida albicans [3] = assay: Antifungal activity against Candida albicans ATCC 90023 assessed as inhibition of fungal growth incubated for 24 hrs by CLSI based microbroth dilution method; type: functional
Cell membrane = assay: Induction of cell membrane potential loss in Candida albicans assessed as change in fluorescence intensity at 4 times MIC measured for 30 mins by DiSC3-5 dye based fluorescence method; type: subcellular
Candida tropicalis = assay: Antifungal activity against Candida tropicalis assessed as inhibition of fungal growth incubated for 24 hrs by CLSI based microbroth dilution method; type: functional
Candida albicans [4] = assay: Antibiofilm activity against Candida albicans assessed as inhibition of biofilm formation at 0.5 to 8 microg/ml measured for 24 hrs by crystal violet staining based; type: functional; details: dose 0.5-8 µg/ml
Candida albicans [5] = assay: Antifungal activity against Candida albicans measured after at 8 passages; type: functional, organism-based
Candida albicans [6] = assay: Potency index, ratio of fluconazole MIC to test compound MIC for antifungal activity against Candida albicans ATCC 90023 assessed as inhibition of fungal growth incubated for 24 hrs by CLSI based microbroth dilution method; type: functional
Aspergillus fumigatus [7] = assay: Potency index, ratio of fluconazole MIC to test compound MIC for antifungal activity against Aspergillus fumigatus assessed as inhibition of fungal growth incubated for 24 hrs by CLSI based microbroth dilution method; type: functional

| Compound | MIC (Candida parapsilosis) [µM] | MIC (Aspergillus fumigatus [1]) [µM] | MIC (Candida albicans [2]) [µM] | MIC (Candida albicans [3]) [µM] | Activity (Cell membrane) | MIC (Candida tropicalis) [µM] | inhibition (Candida albicans [4]) | Activity (Candida albicans [5]) | Ratio (Candida albicans [6]) | Ratio (Aspergillus fumigatus [7]) |
| --- | --- | --- | --- | --- | --- | --- | --- | --- | --- | --- |
| O=C1c2cccc3c(N/N=C/c4ccc[n+](Cc5ccc([N+](=O)[O-])cc5)c4)ccc(c23)C(=O)N1CCO | 14 | 111 | 56 | 56 | inactive | 111 | – | – | – | – |
| OC(Cn1cncn1)(Cn1cncn1)c1ccc(F)cc1F [FLUCONAZOLE] | 26 (≈ 7.96 µg/mL) | 418 (≈ 128 µg/mL) | 13 (≈ 3.98 µg/mL) | 33 (≈ 10.1 µg/mL) | – | 13 (≈ 3.98 µg/mL) | inactive | inactive | – | – |
| CCCCc1nc(Cl)c(/C=N/Nc2ccc3c4c(cccc24)C(=O)N(CCO)C3=O)n1Cc1cccc(Cl)c1 | 57 (≈ 32.2 µg/mL) | 114 (≈ 64.3 µg/mL) | 57 (≈ 32.2 µg/mL) | 2 (≈ 1.13 µg/mL) | – | 28 (≈ 15.8 µg/mL) | – | – | 16 | – |
| CCCCc1nc(Cl)c(/C=N/Nc2ccc3c4c(cccc24)C(=O)N(CCO)C3=O)n1Cc1ccc(Cl)cc1 | 57 (≈ 32.2 µg/mL) | 57 (≈ 32.2 µg/mL) | 57 (≈ 32.2 µg/mL) | 7 (≈ 3.95 µg/mL) | – | 28 (≈ 15.8 µg/mL) | – | – | – | – |
| CN1C(=O)c2cccc3c(N/N=C/c4ccc([N+](=O)[O-])o4)ccc(c23)C1=O | 350 (≈ 128 µg/mL) | 87 (≈ 31.7 µg/mL) | 87 (≈ 31.7 µg/mL) | 175 (≈ 63.8 µg/mL) | – | 87 (≈ 31.7 µg/mL) | – | – | – | – |
| CCN1C(=O)c2cccc3c(N/N=C/c4ccc([N+](=O)[O-])o4)ccc(c23)C1=O | 168 (≈ 63.6 µg/mL) | 338 (≈ 128 µg/mL) | 42 (≈ 15.9 µg/mL) | 84 (≈ 31.8 µg/mL) | – | 84 (≈ 31.8 µg/mL) | – | – | – | – |
| O=C1c2cccc3c(N/N=C/c4cc[nH]c4)ccc(c23)C(=O)N1CCO | 46 (≈ 16 µg/mL) | 92 (≈ 32 µg/mL) | 367 (≈ 128 µg/mL) | 367 (≈ 128 µg/mL) | – | 23 (≈ 8.01 µg/mL) | – | – | – | – |
| CCCCc1nc(Cl)c(/C=N/Nc2ccc3c4c(cccc24)C(=O)N(CCO)C3=O)n1Cc1ccc([N+](=O)[O-])cc1 | 14 (≈ 8.05 µg/mL) | 111 (≈ 63.8 µg/mL) | 111 (≈ 63.8 µg/mL) | 7 (≈ 4.03 µg/mL) | – | 28 (≈ 16.1 µg/mL) | – | – | – | – |
| CCCCc1nc(Cl)c(/C=N/Nc2ccc3c4c(cccc24)C(=O)N(CCO)C3=O)n1CCN1CCOCC1 | 116 (≈ 64.2 µg/mL) | 29 (≈ 16 µg/mL) | 58 (≈ 32.1 µg/mL) | 4 (≈ 2.21 µg/mL) | – | 29 (≈ 16 µg/mL) | – | – | – | – |
| C#CCN1C(=O)c2cccc3c(N/N=C(\C)Cn4c([N+](=O)[O-])cnc4C)ccc(c23)C1=O | 1180 (≈ 510 µg/mL) | 296 (≈ 127 µg/mL) | 1180 (≈ 510 µg/mL) | 1180 (≈ 510 µg/mL) | – | 1180 (≈ 510 µg/mL) | – | – | – | – |
| CCCCc1nc(Cl)c(/C=N/Nc2ccc3c4c(cccc24)C(=O)N(CCO)C3=O)n1CC | 548 (≈ 256 µg/mL) | 68 (≈ 31.8 µg/mL) | 274 (≈ 128 µg/mL) | 137 (≈ 64.1 µg/mL) | – | 34 (≈ 15.9 µg/mL) | – | – | – | – |
| C[n+]1cccc(/C=N/Nc2ccc3c4c(cccc24)C(=O)N(CCO)C3=O)c1.[I-] | 127 | 8 | 32 | 16 | – | 64 | – | – | – | 52 |
| O=C1c2cccc3c(N/N=C/c4ccc(O)c([N+](=O)[O-])c4)ccc(c23)C(=O)N1CCO | 5 (≈ 2.1 µg/mL) | 2 (≈ 0.841 µg/mL) | 5 (≈ 2.1 µg/mL) | 10 (≈ 4.2 µg/mL) | – | 5 (≈ 2.1 µg/mL) | – | – | – | – |
| CCCCCCCN1C(=O)c2cccc3c(N/N=C(\C)Cn4c([N+](=O)[O-])cnc4C)ccc(c23)C1=O | 1040 (≈ 512 µg/mL) | 1040 (≈ 512 µg/mL) | 1040 (≈ 512 µg/mL) | 1040 (≈ 512 µg/mL) | – | 1040 (≈ 512 µg/mL) | – | – | – | – |
| O=C1c2cccc3c(N/N=C/c4cnc(-c5ccccc5)s4)ccc(c23)C(=O)N1CCO | 5 (≈ 2.21 µg/mL) | 44 (≈ 19.5 µg/mL) | 87 (≈ 38.5 µg/mL) | 22 (≈ 9.74 µg/mL) | – | 87 (≈ 38.5 µg/mL) | – | – | – | – |
| NNc1ccc2c3c(cccc13)C(=O)N(CCO)C2=O | 236 (≈ 64 µg/mL) | 118 (≈ 32 µg/mL) | 118 (≈ 32 µg/mL) | 118 (≈ 32 µg/mL) | – | 118 (≈ 32 µg/mL) | – | – | – | – |

| Compound | MIC (Candida parapsilosis) [µM] | MIC (Aspergillus fumigatus [1]) [µM] | MIC (Candida albicans [2]) [µM] | MIC (Candida albicans [3]) [µM] | Activity (Cell membrane) | MIC (Candida tropicalis) [µM] | inhibition (Candida albicans [4]) | Activity (Candida albicans [5]) | Ratio (Candida albicans [6]) | Ratio (Aspergillus fumigatus [7]) |
| --- | --- | --- | --- | --- | --- | --- | --- | --- | --- | --- |
| O=C1c2cccc3c(N/N=C/c4c[nH]cn4)ccc(c23)C(=O)N1CCO | 23 (≈ 8.04 µg/mL) | 183 (≈ 63.9 µg/mL) | 183 (≈ 63.9 µg/mL) | 92 (≈ 32.1 µg/mL) | – | 46 (≈ 16.1 µg/mL) | – | – | – | – |
| C=CCn1c(CCCC)nc(Cl)c1/C=N/Nc1ccc2c3c(cccc13)C(=O)N(CCO)C2=O | 134 (≈ 64.3 µg/mL) | 17 (≈ 8.16 µg/mL) | 67 (≈ 32.2 µg/mL) | 33 (≈ 15.8 µg/mL) | – | 2 (≈ 0.96 µg/mL) | – | – | – | – |
| C[n+]1ccc(/C=N/Nc2ccc3c4c(cccc24)C(=O)N(CCO)C3=O)cc1 | 64 | 127 | 16 | 8 | – | 255 | – | – | – | – |
| C/C(Cn1c([N+](=O)[O-])cnc1C)=N\Nc1ccc2c3c(cccc13)C(=O)N(c1ccc(Cl)cc1Cl)C2=O | 119 (≈ 63.9 µg/mL) | 238 (≈ 128 µg/mL) | 238 (≈ 128 µg/mL) | 953 (≈ 512 µg/mL) | – | 238 (≈ 128 µg/mL) | – | – | – | – |
| CCCCCCN1C(=O)c2cccc3c(N/N=C(\C)Cn4c([N+](=O)[O-])cnc4C)ccc(c23)C1=O | 1070 (≈ 512 µg/mL) | 1070 (≈ 512 µg/mL) | 1070 (≈ 512 µg/mL) | 1070 (≈ 512 µg/mL) | – | 1070 (≈ 512 µg/mL) | – | – | – | – |
| CCCCc1nc(Cl)c(/C=N/Nc2ccc3c4c(cccc24)C(=O)N(CCO)C3=O)n1Cc1ccccc1F | 15 (≈ 8.22 µg/mL) | 58 (≈ 31.8 µg/mL) | 58 (≈ 31.8 µg/mL) | 15 (≈ 8.22 µg/mL) | – | 15 (≈ 8.22 µg/mL) | – | – | – | – |
| CCCCc1nc(Cl)c(/C=N/Nc2ccc3c4c(cccc24)C(=O)N(CCO)C3=O)n1Cc1ccccc1Cl | 57 (≈ 32.2 µg/mL) | 227 (≈ 128 µg/mL) | 57 (≈ 32.2 µg/mL) | 4 (≈ 2.26 µg/mL) | – | 57 (≈ 32.2 µg/mL) | – | – | – | – |
| CCCCCn1c(CCCC)nc(Cl)c1/C=N/Nc1ccc2c3c(cccc13)C(=O)N(CCO)C2=O | 251 (≈ 128 µg/mL) | 63 (≈ 32.1 µg/mL) | 251 (≈ 128 µg/mL) | 126 (≈ 64.3 µg/mL) | – | 16 (≈ 8.16 µg/mL) | – | – | – | – |
| CCCCc1nc(Cl)c(/C=N/Nc2ccc3c4c(cccc24)C(=O)N(CCO)C3=O)n1Cc1ccc(Cl)cc1Cl | 13 (≈ 7.79 µg/mL) | 214 (≈ 128 µg/mL) | 54 (≈ 32.3 µg/mL) | 3 (≈ 1.8 µg/mL) | – | 54 (≈ 32.3 µg/mL) | – | – | – | – |
| CCCCCCCn1c(CCCC)nc(Cl)c1/C=N/Nc1ccc2c3c(cccc13)C(=O)N(CCO)C2=O | 238 (≈ 128 µg/mL) | 119 (≈ 64 µg/mL) | 119 (≈ 64 µg/mL) | 119 (≈ 64 µg/mL) | – | 60 (≈ 32.3 µg/mL) | – | – | – | – |
| O=C1c2cccc3c(N/N=C/c4cncs4)ccc(c23)C(=O)N1CCO | 22 (≈ 8.06 µg/mL) | 175 (≈ 64.1 µg/mL) | 350 (≈ 128 µg/mL) | 44 (≈ 16.1 µg/mL) | – | 87 (≈ 31.9 µg/mL) | – | – | – | – |
| C#CCn1c(CCCC)nc(Cl)c1/C=N/Nc1ccc2c3c(cccc13)C(=O)N(CCO)C2=O | 67 (≈ 32 µg/mL) | 8 (≈ 3.82 µg/mL) | 67 (≈ 32 µg/mL) | 17 (≈ 8.13 µg/mL) | – | 2 (≈ 0.956 µg/mL) | – | – | – | – |
| C[n+]1ccccc1/C=N/Nc1ccc2c3c(cccc13)C(=O)N(CCO)C2=O | 64 | 127 | 32 | 255 | – | 32 | – | – | – | – |
| O=C1c2cccc3c(N/N=C/c4cccc(O)c4)ccc(c23)C(=O)N1CCO | 341 (≈ 128 µg/mL) | 171 (≈ 64.2 µg/mL) | 341 (≈ 128 µg/mL) | 341 (≈ 128 µg/mL) | – | 682 (≈ 256 µg/mL) | – | – | – | – |
| Cc1ccc(/C=N/Nc2ccc3c4c(cccc24)C(=O)N(CCO)C3=O)o1 | 169 (≈ 61.4 µg/mL) | 338 (≈ 123 µg/mL) | 42 (≈ 15.3 µg/mL) | 84 (≈ 30.5 µg/mL) | – | 84 (≈ 30.5 µg/mL) | – | – | – | – |
